Experimental data reported in patent US20250186442A1, “Obicetrapib and Ezetimibe Combination Treatment and Fixed Dose Pharmaceutical Compositions” (NewAmsterdam Pharma B.V., priority 2022, published 2025).

Key:
Lp(a) = settings: TA-8995-06; following 12 weeks of treatment; cited from earlier work
LDL-C = assay: ROSE2 phase 2b clinical trial - LDL-C; type: in vivo, human; settings: for LDL-C Change from Baseline to Day 28, Mean / LDL-C Change from Baseline to Day 28, Median / LDL-C Change from Baseline to Day 84, Mean / LDL-C Change from Baseline to Day 84, Median / LDL-C Day 28, Mean / LDL-C Day 28, Median / LDL-C Day 84, Mean / LDL-C Day 84, Median / LDL-C Percent Change from Baseline to Day 28 (%), Mean / LDL-C Percent Change from Baseline to Day 28 (%), Median / LDL-C Percent Change from Baseline to Day 84 (%), Mean / LDL-C Percent Change from Baseline to Day 84 (%), Median: obicetrapib 10 mg, ezetimibe 10 mg
Description: The primary objective of this study is to evaluate the effect of obicetrapib 10 mg+ezetimibe 10 mg combination therapy compared with placebo, when used as an adjunct to high-intensity statin therapy, on LDL-C at Day 84.
The secondary objectives of this study include the following, in hierarchical order: • To evaluate the effect of obicetrapib 10 mg monotherapy compared with placebo, when used as an adjunct to high-intensity statin therapy, on LDL-C at Day 84; • To evaluate the effect of obicetrapib 10 mg+ezetimibe 10 mg combination therapy compared with placebo, when used as an adjunct to high-intensity statin therapy, on ApoB at Day 84; and • To evaluate the effect of obicetrapib 10 mg monotherapy compared with placebo, when used as an adjunct to high-intensity statin therapy, on ApoB at Day 84.
This study will be a placebo-controlled, double-blind, randomized, Phase 2 study to evaluate the efficacy, safety, and tolerability of obicetrapib 10 mg, both in combination with ezetimibe 10 mg and as monotherapy, as an adjunct to high-intensity statin therapy. This study will take place at approximately 20 sites in the United States.
Up to 2 weeks after the Screening Visit, participants will return to the site on Day 1 (Visit 2) and confirm study eligibility before being randomized and beginning treatment. Approximately 114 eligible participants (38 participants per treatment group) will be randomized in a 1:1:1 ratio to 1 of the following treatment groups: • Combination therapy: Obicetrapib 10 mg+ezetimibe 10 mg (administered as one 10 mg obicetrapib tablet and one 10 mg ezetimibe capsule); • Obicetrapib monotherapy: Obicetrapib 10 mg (administered as one 10 mg obicetrapib tablet and 1 placebo capsule); or • Placebo (administered as 1 placebo tablet and 1 placebo capsule).
During the 12-week Treatment Period, the assigned study drugs will be administered by the participants orally with water, once daily on Day 1 to Day 84 at approximately the same time each morning. Participants will return to the site on Day 28 (+2 days), Day 84 (+2 days), and Day 112 (+2 days) for efficacy, safety, and pharmacokinetic (PK) assessments. Participants, Investigators, the Clinical Research Organization (CRO), and the Sponsor will be blinded to all lipid results from Day 1 (Visit 2) for the first participant until all enrolled participants complete the Day 84 (End of Treatment) visit or are withdrawn from the study, in order to protect blinding to treatment assignment.
The primary efficacy endpoint is the percent change from Day 1 to Day 84 in LDL-C for the obicetrapib 10 mg+ezetimibe 10 mg combination treatment group compared with the placebo group.
The secondary efficacy endpoints include the following, in hierarchical order: • Percent change from Day 1 to Day 84 in LDL-C for the obicetrapib 10 mg monotherapy • treatment group compared with the placebo group; • Percent change from Day 1 to Day 84 in ApoB for the obicetrapib 10 mg+ezetimibe 10 mg • combination treatment group compared with the placebo group; and • Percent change from Day 1 to Day 84 in ApoB for the obicetrapib 10 mg monotherapy treatment group compared with the placebo group.
The exploratory efficacy endpoints include the following: • Percent change from Day 1 to Day 84 in non-HDL-C, VLDL-C, HDL-C, TG, ApoE, Lp(a), and HDL-ApoE for the obicetrapib 10 mg+ezetimibe 10 mg combination treatment group compared with the placebo group and for the obicetrapib 10 mg monotherapy treatment group compared with the placebo group; and • Proportion of participants at Day 84 that achieve LDL-C<2.6 mmol/L (<100 mg/dL), LDL-C<1.8 mmol/L (<70 mg/dL), and LDL-C<1.3 mmol/L (<50 mg/dL) for the obicetrapib 10 mg+ezetimibe 10 mg combination treatment group compared with the placebo group and for the obicetrapib 10 mg monotherapy treatment group compared with the placebo group. […]

QTcF = settings: TA-8995-04; cited from earlier work
P-glycoprotein = molecular target: T1, P-glycoprotein (Homo sapiens, UniProt P08183); settings: TA-8995-05; cited from earlier work
T1 construct: endogenous in cells; host or cells: study subjects in vivo (clinical study)
T1 sequence (P08183 whole entry): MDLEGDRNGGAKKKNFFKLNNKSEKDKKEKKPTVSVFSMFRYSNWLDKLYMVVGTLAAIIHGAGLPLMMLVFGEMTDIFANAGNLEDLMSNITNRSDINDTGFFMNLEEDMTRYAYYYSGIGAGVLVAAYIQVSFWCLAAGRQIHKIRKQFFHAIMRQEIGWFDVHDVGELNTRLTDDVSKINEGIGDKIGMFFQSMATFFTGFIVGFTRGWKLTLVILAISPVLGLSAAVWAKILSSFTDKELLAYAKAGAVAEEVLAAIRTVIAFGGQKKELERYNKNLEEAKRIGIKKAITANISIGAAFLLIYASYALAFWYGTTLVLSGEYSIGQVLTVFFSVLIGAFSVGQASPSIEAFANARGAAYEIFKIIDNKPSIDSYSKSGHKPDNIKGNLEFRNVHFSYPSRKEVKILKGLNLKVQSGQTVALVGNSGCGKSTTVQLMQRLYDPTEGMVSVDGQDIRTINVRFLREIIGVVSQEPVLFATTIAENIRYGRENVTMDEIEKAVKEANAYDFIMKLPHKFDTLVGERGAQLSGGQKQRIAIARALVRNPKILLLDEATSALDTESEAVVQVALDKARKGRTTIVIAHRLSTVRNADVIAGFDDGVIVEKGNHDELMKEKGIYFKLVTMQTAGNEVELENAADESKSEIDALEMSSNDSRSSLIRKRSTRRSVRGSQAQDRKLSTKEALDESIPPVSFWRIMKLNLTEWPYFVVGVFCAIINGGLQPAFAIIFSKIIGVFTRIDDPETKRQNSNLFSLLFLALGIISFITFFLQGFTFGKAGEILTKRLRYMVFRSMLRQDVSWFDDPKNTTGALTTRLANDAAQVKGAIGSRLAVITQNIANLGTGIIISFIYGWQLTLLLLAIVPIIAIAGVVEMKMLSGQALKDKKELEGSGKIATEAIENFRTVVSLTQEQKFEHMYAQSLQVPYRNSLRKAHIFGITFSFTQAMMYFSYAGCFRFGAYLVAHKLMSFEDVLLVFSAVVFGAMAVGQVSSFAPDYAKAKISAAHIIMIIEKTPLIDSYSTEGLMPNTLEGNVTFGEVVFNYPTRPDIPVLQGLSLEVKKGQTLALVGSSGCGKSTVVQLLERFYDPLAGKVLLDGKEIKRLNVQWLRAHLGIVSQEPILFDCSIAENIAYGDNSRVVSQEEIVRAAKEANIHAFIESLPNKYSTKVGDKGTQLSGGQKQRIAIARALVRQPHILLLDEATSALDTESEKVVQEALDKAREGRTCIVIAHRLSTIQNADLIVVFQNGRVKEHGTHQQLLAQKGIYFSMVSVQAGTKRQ

In the case of CCOC(=O)N1c2ccc(C(F)(F)F)cc2[C@@H](N(Cc2cc(C(F)(F)F)cc(C(F)(F)F)c2)c2ncc(OCCCC(=O)O)cn2)C[C@H]1CC [Obicetrapib, {4-[(2-{[3,5-bis(trifluoromethyl)benzyl][(2R,4S)-1-(ethoxycarbonyl)-2-ethyl-6-(trifluoromethyl)-1,2,3,4-tetrahydroquinolin-4-yl]amino}pyrimidin-5-yl)oxy]butanoic acid}], the “Lp(a) levels” value (Lp(a)) is given as “statistically significant reduction”, the “LDL-C Change from Baseline to Day 28, Mean” value (LDL-C; Exploratory Population) is given as -43.0 mg/dL and the “LDL-C Change from Baseline to Day 28, Median” value (LDL-C; Exploratory Population) is given as -45.0 mg/dL. The “LDL-C Change from Baseline to Day 84, Mean” value (LDL-C; Exploratory Population) was -39.9 mg/dL, the “LDL-C Change from Baseline to Day 84, Median” value (LDL-C; Exploratory Population) was -38.5 mg/dL and the “LDL-C Day 28, Mean” value (LDL-C; Exploratory Population) was 57.6 mg/dL. The “LDL-C Day 28, Median” value (LDL-C; Exploratory Population) was 51.5 mg/dL, the “LDL-C Day 84, Mean” value (LDL-C; Exploratory Population) was 60.7 mg/dL and the “LDL-C Day 84, Median” value (LDL-C; Exploratory Population) was 55.5 mg/dL. The “LDL-C Percent Change from Baseline to Day 28 (%), Mean” value (LDL-C; Exploratory Population) was −43.59%, the “LDL-C Percent Change from Baseline to Day 28 (%), Median” value (LDL-C; Exploratory Population) was −43.90% and the “LDL-C Percent Change from Baseline to Day 84 (%), Mean” value (LDL-C; Exploratory Population) was −39.35%. For the same compound, the “LDL-C Percent Change from Baseline to Day 84 (%), Median” value (LDL-C; Exploratory Population) was −43.50%, the “median reduction in LDL-C” value (LDL-C; ROSE2 phase 2b (NCT05266586), obicetrapib 10 mg with or without ezetimibe 10 mg) was 39% and the “LDL-C Change from Baseline to Day 28, Mean” value (LDL-C; mITT Population) was -33.2 mg/dL. The “LDL-C Change from Baseline to Day 28, Median” value (LDL-C; mITT Population) was -35.0 mg/dL, the “LDL-C Change from Baseline to Day 84, Mean” value (LDL-C; mITT Population) was -21.3 mg/dL and the “LDL-C Change from Baseline to Day 84, Median” value (LDL-C; mITT Population) was -29.5 mg/dL. The “LDL-C Day 28, Mean” value (LDL-C; mITT Population) was 70.3 mg/dL, the “LDL-C Day 28, Median” value (LDL-C; mITT Population) was 56.0 mg/dL and the “LDL-C Day 84, Mean” value (LDL-C; mITT Population) was 82.7 mg/dL. For the same compound, the “LDL-C Day 84, Median” value (LDL-C; mITT Population) was 65.0 mg/dL, the “LDL-C Percent Change from Baseline to Day 28 (%), Mean” value (LDL-C; mITT Population) was −32.21% and the “LDL-C Percent Change from Baseline to Day 28 (%), Median” value (LDL-C; mITT Population) was −41.70%. The “LDL-C Percent Change from Baseline to Day 84 (%), Mean” value (LDL-C; mITT Population) was −18.92%, the “LDL-C Percent Change from Baseline to Day 84 (%), Median” value (LDL-C; mITT Population) was −32.35% and the “effect on the QTcF” value (QTcF) was “no effect”. The “effect on P-glycoprotein activity” value (P-glycoprotein) was “no significant effect”.
